Results from ChEMBL document CHEMBL1201862, “PubChem BioAssay data set” (2004).
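Compound exposure: 48 hours, 5 concentrations, 96-well plates. Here, GI50 denotes the concentration required for 50% inhibition of growth.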 Calls of active or inactive are those of the source. No stated cut-off is given here; in the data, active = GI50 up to about 1.1 µM and inactive = higher.

Experiments:
Test in all cases: NCI-60 cell line screen, 48 h
[1] = test system: MCF7
[2] = test system: NCI-H226
[3] = test system: MDA-MB-435
[4] = test system: SNB-19
[5] = test system: IGROV-1
[6] = test system: KM12
[7] = test system: ACHN
[8] = test system: SF-295
[9] = test system: SK-MEL-2
[10] = test system: CAKI-1
[11] = test system: Malme-3M
[12] = test system: SF-268
[13] = test system: SR
[14] = test system: UACC-257
[15] = test system: HCC 2998
[16] = test system: NCI-H23
[17] = test system: NCI/ADR-RES
[18] = test system: RPMI-8226
[19] = test system: OVCAR-5
[20] = test system: A549
[21] = test system: HOP-62
[22] = test system: SK-MEL-5
[23] = test system: SK-OV-3
[24] = test system: EKVX
[25] = test system: COLO 205
[26] = test system: RXF 393
[27] = test system: A498
[28] = test system: UACC-62
[29] = test system: CCRF-CEM
[30] = test system: SNB-75
[31] = test system: MDA-MB-231
[32] = test system: T47D
[33] = test system: PC-3
[34] = test system: 786-0
[35] = test system: K562
[36] = test system: OVCAR-4
[37] = test system: LOX IMVI
[38] = test system: HCT-116
[39] = test system: HCT-15
[40] = test system: BT-549
[41] = test system: DU-145
[42] = test system: SK-MEL-28
[43] = test system: NCI-H522
[44] = test system: MOLT-4
[45] = test system: TK-10
[46] = test system: HOP-92
[47] = test system: SN12C
[48] = test system: UO-31
[49] = test system: OVCAR-8
[50] = test system: MDA-N
[51] = test system: U-251
[52] = test system: SW-620
[53] = test system: M14
[54] = test system: HT-29
[55] = test system: OVCAR-3
[56] = test system: NCI-H460
[57] = test system: SF-539
[58] = test system: HL-60

## Cc1sc2nc3n(c(=O)c2c1C)N=CN(c1ccccc1)C3
[1]
  GI50: > 100 µM (inactive)
[2]
  GI50: > 100 µM (inactive)
[3]
  GI50: > 100 µM (inactive)
[4]
  GI50: 35.5 µM (inactive)
[5]
  GI50: > 100 µM (inactive)
[6]
  GI50: > 100 µM (inactive)
[7]
  GI50: 59.3 µM (inactive)
[8]
  GI50: 84.9 µM (inactive)
[9]
  GI50: > 100 µM (inactive)
[10]
  GI50: 36 µM (inactive)
[11]
  GI50: 32 µM (inactive)
[12]
  GI50: 23.4 µM (inactive)
[13]
  GI50: > 100 µM (inactive)
[14]
  GI50: > 100 µM (inactive)
[15]
  GI50: 60.5 µM (inactive)
[16]
  GI50: > 100 µM (inactive)
[17]
  GI50: > 100 µM (inactive)
[18]
  GI50: > 100 µM (inactive)
[19]
  GI50: > 100 µM (inactive)
[20]
  GI50: > 100 µM (inactive)
[21]
  GI50: 20.4 µM (inactive)
[22]
  GI50: > 100 µM (inactive)
[23]
  GI50: > 100 µM (inactive)
[24]
  GI50: > 100 µM (inactive)
[25]
  GI50: > 100 µM (inactive)
[26]
  GI50: 37.1 µM (inactive)
[27]
  GI50: > 100 µM (inactive)
[28]
  GI50: > 100 µM (inactive)
[29]
  GI50: > 100 µM (inactive)
[30]
  GI50: 35.9 µM (inactive)
[31]
  GI50: 68.1 µM (inactive)
[32]
  GI50: 79.8 µM (inactive)
[33]
  GI50: > 100 µM (inactive)
[34]
  GI50: 15.8 µM (inactive)
[35]
  GI50: > 100 µM (inactive)
[36]
  GI50: 30.1 µM (inactive)
[37]
  GI50: > 100 µM (inactive)
[38]
  GI50: > 100 µM (inactive)
[39]
  GI50: > 100 µM
[40]
  GI50: > 100 µM (inactive)
[41]
  GI50: > 100 µM (inactive)
[42]
  GI50: > 100 µM (inactive)
[43]
  GI50: 38.5 µM (inactive)
[44]
  GI50: > 100 µM (inactive)
[45]
  GI50: > 100 µM (inactive)
[46]
  GI50: 23.7 µM (inactive)
[47]
  GI50: > 100 µM (inactive)
[48]
  GI50: > 100 µM (inactive)
[49]
  GI50: 68.9 µM (inactive)
[50]
  GI50: > 100 µM (inactive)
[51]
  GI50: 52.4 µM (inactive)
[52]
  GI50: > 100 µM (inactive)
[53]
  GI50: > 100 µM (inactive)
[54]
  GI50: > 100 µM (inactive)
[55]
  GI50: 19.4 µM (inactive)
[56]
  GI50: > 100 µM (inactive)

## Cc1ccc(NC(=S)C#N)cc1Cl
[1]
  GI50: 56.2 µM (inactive)
[2]
  GI50: 24.3 µM (inactive)
[3]
  GI50: 41.8 µM (inactive)
[5]
  GI50: 17.1 µM (inactive)
[6]
  GI50: 37.8 µM (inactive)
[7]
  GI50: 37.7 µM (inactive)
[8]
  GI50: 26.4 µM (inactive)
[9]
  GI50: 35.5 µM (inactive)
[10]
  GI50: 41.3 µM (inactive)
[11]
  GI50: 23.4 µM (inactive)
[12]
  GI50: 36.9 µM (inactive)
[13]
  GI50: 27 µM (inactive)
[14]
  GI50: 46.3 µM (inactive)
[15]
  GI50: 24.3 µM (inactive)
[16]
  GI50: 33.8 µM (inactive)
[17]
  GI50: 31 µM (inactive)
[18]
  GI50: 6.79 µM (inactive)
[19]
  GI50: 24.8 µM (inactive)
[20]
  GI50: 23.8 µM (inactive)
[21]
  GI50: 49.1 µM (inactive)
[22]
  GI50: 24 µM (inactive)
[23]
  GI50: 26.5 µM (inactive)
[57]
  GI50: 24.2 µM (inactive)
[24]
  GI50: 42.2 µM (inactive)
[25]
  GI50: 20.9 µM (inactive)
[26]
  GI50: 29.4 µM (inactive)
[27]
  GI50: 26.7 µM (inactive)
[28]
  GI50: 37.9 µM (inactive)
[29]
  GI50: 25.5 µM (inactive)
[30]
  GI50: 21.5 µM (inactive)
[31]
  GI50: 88.3 µM (inactive)
[32]
  GI50: 32.4 µM (inactive)
[33]
  GI50: 43.4 µM (inactive)
[34]
  GI50: 45.2 µM (inactive)
[35]
  GI50: 39.3 µM (inactive)
[37]
  GI50: 42.3 µM (inactive)
[38]
  GI50: 36.6 µM (inactive)
[39]
  GI50: 23.3 µM
[40]
  GI50: 53 µM (inactive)
[41]
  GI50: 68.9 µM (inactive)
[42]
  GI50: 41.2 µM (inactive)
[44]
  GI50: 32.8 µM (inactive)
[45]
  GI50: 60.4 µM (inactive)
[46]
  GI50: 13.4 µM (inactive)
[47]
  GI50: 58.5 µM (inactive)
[49]
  GI50: 35.7 µM (inactive)
[50]
  GI50: 41.7 µM (inactive)
[51]
  GI50: 55.8 µM (inactive)
[52]
  GI50: 48.8 µM (inactive)
[53]
  GI50: 36.9 µM (inactive)
[54]
  GI50: 30.1 µM (inactive)
[55]
  GI50: 21.5 µM (inactive)

## N#Cc1ccc2oc3ccc(C#N)cc3c(=O)c2c1
[1]
  GI50: 24.5 µM (inactive)
[2]
  GI50: 35.9 µM (inactive)
[3]
  GI50: 34.4 µM (inactive)
[4]
  GI50: 27.9 µM (inactive)
[5]
  GI50: 32 µM (inactive)
[6]
  GI50: 46.5 µM (inactive)
[7]
  GI50: > 100 µM (inactive)
[8]
  GI50: 22.9 µM (inactive)
[58]
  GI50: 17.9 µM (inactive)
[9]
  GI50: 19.6 µM (inactive)
[10]
  GI50: > 100 µM (inactive)
[11]
  GI50: 24.2 µM (inactive)
[12]
  GI50: 35.9 µM (inactive)
[13]
  GI50: 41.6 µM (inactive)
[14]
  GI50: > 100 µM (inactive)
[15]
  GI50: 58.2 µM (inactive)
[16]
  GI50: 21.3 µM (inactive)
[17]
  GI50: > 100 µM (inactive)
[18]
  GI50: 23.2 µM (inactive)
[19]
  GI50: 19.7 µM (inactive)
[20]
  GI50: 23 µM (inactive)
[22]
  GI50: 5.6 µM (inactive)
[57]
  GI50: 21.3 µM (inactive)
[25]
  GI50: 26.7 µM (inactive)
[26]
  GI50: 18.3 µM (inactive)
[27]
  GI50: 14.8 µM (inactive)
[28]
  GI50: 19 µM (inactive)
[29]
  GI50: 31.8 µM (inactive)
[30]
  GI50: 31.7 µM (inactive)
[31]
  GI50: > 100 µM (inactive)
[32]
  GI50: > 100 µM (inactive)
[33]
  GI50: 24.7 µM (inactive)
[34]
  GI50: 25.8 µM (inactive)
[35]
  GI50: 31.3 µM (inactive)
[36]
  GI50: 18 µM (inactive)
[38]
  GI50: 29 µM (inactive)
[39]
  GI50: > 100 µM
[40]
  GI50: 25.5 µM (inactive)
[41]
  GI50: 30.8 µM (inactive)
[42]
  GI50: 18.5 µM (inactive)
[43]
  GI50: 58.2 µM (inactive)
[44]
  GI50: 23.6 µM (inactive)
[45]
  GI50: 24.3 µM (inactive)
[46]
  GI50: 41 µM (inactive)
[47]
  GI50: > 100 µM (inactive)
[48]
  GI50: > 100 µM (inactive)
[49]
  GI50: > 100 µM (inactive)
[50]
  GI50: 16.4 µM (inactive)
[51]
  GI50: 17.1 µM (inactive)
[52]
  GI50: 51.5 µM (inactive)
[53]
  GI50: > 100 µM (inactive)
[54]
  GI50: 20.2 µM (inactive)
[55]
  GI50: > 10 µM (inactive)
[56]
  GI50: 18.6 µM (inactive)
